Literature values in US20100210573A1, “COMPOUND AND COMPOSITIONS FOR TREATMENT OF DISEASE” (Citrox Limited, priority 2008, published 2010).

Experiments:
[1] = test system: Leishmania donovani promastigotes and amastigotes; details: in vitro; Mittra et al., Molecular Medicine 6, 2000
[2] = test system: Trypanosoma brucei gambiense; details: cell cultures; Antimicrobial Agents and Chemother. 48, 2004

O=c1cc(-c2ccc(O)c(O)c2)oc2cc(O)cc(O)c12 [Luteolin]
growth of Leishmania donovani promastigotes and amastigotes [1]: inhibit the growth

O=c1c(O)c(-c2ccc(O)c(O)c2)oc2cc(O)cc(O)c12 [Quercetin]
growth of Leishmania donovani promastigotes and amastigotes [1]: inhibit the growth
apoptosis of Trypanosoma brucei gambiense [2]: induce apoptosis
